The source made the active and inactive calls. The rule behind the calls is not given here.
Experiments:
[1] = molecular target: Protein arginine N-methyltransferase 5 (Homo sapiens, UniProt O14744); test: Inhibition of PRMT5 (unknown origin)
[2] = molecular target: Protein arginine N-methyltransferase 1 (Homo sapiens, UniProt Q99873); test: Inhibition of PRMT1 (unknown origin)
[3] = molecular target: T1, Histone-arginine methyltransferase CARM1 (Homo sapiens, UniProt Q86X55); test: Inhibition of PRMT4 (unknown origin)
T1 sequence (Q86X55 whole entry): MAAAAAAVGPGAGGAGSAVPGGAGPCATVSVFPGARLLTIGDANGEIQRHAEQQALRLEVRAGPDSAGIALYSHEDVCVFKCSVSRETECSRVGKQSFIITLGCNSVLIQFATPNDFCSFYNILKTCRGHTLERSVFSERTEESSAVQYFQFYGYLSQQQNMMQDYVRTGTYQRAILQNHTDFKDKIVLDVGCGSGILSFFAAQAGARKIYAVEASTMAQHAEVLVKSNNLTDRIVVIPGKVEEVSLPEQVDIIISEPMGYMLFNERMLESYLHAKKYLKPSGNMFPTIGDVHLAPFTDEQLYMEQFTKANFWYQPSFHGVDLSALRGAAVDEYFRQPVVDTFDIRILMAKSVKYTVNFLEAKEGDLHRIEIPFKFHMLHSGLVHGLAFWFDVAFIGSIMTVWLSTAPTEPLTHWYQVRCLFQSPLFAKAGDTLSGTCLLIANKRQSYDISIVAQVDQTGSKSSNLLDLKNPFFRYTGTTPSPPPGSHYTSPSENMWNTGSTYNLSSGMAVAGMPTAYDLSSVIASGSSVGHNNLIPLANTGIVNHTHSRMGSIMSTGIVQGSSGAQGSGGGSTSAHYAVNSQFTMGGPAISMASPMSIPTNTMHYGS

A549 [4] = test: Antiproliferative activity against human A549 cells assessed as reduction in cell viability at 25 uM incubated for 24 hrs by SRB assay; type: functional, cell-based
A549 [5] = test: Antiproliferative activity against human A549 cells assessed as inhibition of cell growth incubated for 24 hrs by SRB assay; type: functional, cell-based; details: A549, 24 h
MCF7 = test: Antiproliferative activity against human MCF7 cells assessed as inhibition of cell growth incubated for 24 hrs by SRB assay; type: functional, cell-based; details: MCF7, 24 h
MDA-MB-231 = test: Antiproliferative activity against human MDA-MB-231 cells assessed as inhibition of cell growth incubated for 24 hrs by SRB assay; type: functional, cell-based; details: MDA-MB-231, 24 h
HepG2 = test: Antiproliferative activity against human HepG2 cells assessed as inhibition of cell growth incubated for 24 hrs by SRB assay; type: functional, cell-based; details: HepG2, 24 h
[6] = Antiproliferative activity against human L02 cells assessed as inhibition of cell growth incubated for 24 hrs by SRB assay; type: toxicity, cell-based
A549 [7] = test: Anticancer activity against human A549 cells assessed as decrease in cell number incubated for 24 hrs by SRB assay; type: functional, cell-based; details: dose 12.5-50 µM
A549 [8] = test: Induction of apoptosis in human A549 cells assessed as nuclear fragmentation incubated for 24 hrs by Hoechst 33342 staining based analysis; type: functional, cell-based; details: dose 12.5-50 µM
A549 [9] = test: Induction of apoptosis in human A549 cells at 2.5 to 50 uM incubated for 24 hrs by Hoechst 33342 staining based analysis; type: functional; details: dose 2.5-50 µM
A549 [10] = test: Inhibition of cell migration human A549 cells assessed as decrease in migration distance at 12.5 to 25 uM incubated upto 12 hrs by wound healing assay; type: functional, cell-based; details: dose 12.5-25 µM
A549 [11] = test: Upregulation of hnRNP E1 gene expression in human A549 cells at 12.5 to 50 uM incubated for 24 hrs by Western blot analysis; type: functional, cell-based; details: dose 12.5-50 µM
A549 [12] = test: Induction of apoptosis in human A549 cells transfected in hnRNP E1 siRNA assessed as reduction in cell number incubated for 24 hrs by Hoechst 33258 staining based analysis; type: functional
A549 [13] = test: Inhibition of cell migration human A549 cells transfected with hnRNP E1 siRNA incubated upto 12 hrs by wound healing assay; type: functional, cell-based
[14] = Metabolic stability in human liver microsome assessed as half life measured upto 4 hrs in presence of NADPH by LC-MS/MS analysis; type: ADME; details: liver microsomes
[15] = Metabolic stability in rat liver microsome assessed as half life measured upto 4 hrs in presence of NADPH by LC-MS/MS analysis; type: ADME; details: liver microsomes
[16] = Tmax in Sprague-Dawley rat at 10 mg/kg, po measured upto 24 hrs by LC-MS/MS analysis; type: ADME, organism-based; details: in vivo
[17] = Cmax in Sprague-Dawley rat at 10 mg/kg, po measured upto 24 hrs by LC-MS/MS analysis; type: ADME, organism-based; details: in vivo
[18] = Cmax in Sprague-Dawley rat at 2 mg/kg, iv measured upto 24 hrs by LC-MS/MS analysis; type: ADME, organism-based; details: in vivo
[19] = Half life in Sprague-Dawley rat at 10 mg/kg, po measured upto 24 hrs by LC-MS/MS analysis; type: ADME, organism-based; details: in vivo
[20] = Half life in Sprague-Dawley rat at 2 mg/kg, iv measured upto 24 hrs by LC-MS/MS analysis; type: ADME, organism-based; details: in vivo
[21] = AUC (0 to t) in Sprague-Dawley rat at 10 mg/kg, po measured upto 24 hrs by LC-MS/MS analysis; type: ADME, organism-based; details: in vivo
[22] = AUC (0 to t) in Sprague-Dawley rat at 2 mg/kg, iv measured upto 24 hrs by LC-MS/MS analysis; type: ADME, organism-based; details: in vivo
[23] = AUC (0 to infinity) in Sprague-Dawley rat at 10 mg/kg, po measured upto 24 hrs by LC-MS/MS analysis; type: ADME, organism-based; details: in vivo
[24] = AUC (0 to infinity) in Sprague-Dawley rat at 2 mg/kg, iv measured upto 24 hrs by LC-MS/MS analysis; type: ADME, organism-based; details: in vivo
[25] = Clearance in Sprague-Dawley rat at 2 mg/kg, iv measured upto 24 hrs by LC-MS/MS analysis; type: ADME, organism-based; details: in vivo
[26] = Volume of distribution in Sprague-Dawley rat at 2 mg/kg, iv measured upto 24 hrs by LC-MS/MS analysis; type: ADME, organism-based; details: in vivo
[27] = Oral bioavailability in Sprague-Dawley rat at 10 mg/kg measured upto 24 hrs by LC-MS/MS analysis; type: ADME, organism-based; details: in vivo
[28] = Bioavailability in Sprague-Dawley rat at 2 mg/kg, iv measured upto 24 hrs by LC-MS/MS analysis; type: ADME, organism-based; details: in vivo

Protein arginine N-methyltransferase 5, sequence (O14744 whole entry): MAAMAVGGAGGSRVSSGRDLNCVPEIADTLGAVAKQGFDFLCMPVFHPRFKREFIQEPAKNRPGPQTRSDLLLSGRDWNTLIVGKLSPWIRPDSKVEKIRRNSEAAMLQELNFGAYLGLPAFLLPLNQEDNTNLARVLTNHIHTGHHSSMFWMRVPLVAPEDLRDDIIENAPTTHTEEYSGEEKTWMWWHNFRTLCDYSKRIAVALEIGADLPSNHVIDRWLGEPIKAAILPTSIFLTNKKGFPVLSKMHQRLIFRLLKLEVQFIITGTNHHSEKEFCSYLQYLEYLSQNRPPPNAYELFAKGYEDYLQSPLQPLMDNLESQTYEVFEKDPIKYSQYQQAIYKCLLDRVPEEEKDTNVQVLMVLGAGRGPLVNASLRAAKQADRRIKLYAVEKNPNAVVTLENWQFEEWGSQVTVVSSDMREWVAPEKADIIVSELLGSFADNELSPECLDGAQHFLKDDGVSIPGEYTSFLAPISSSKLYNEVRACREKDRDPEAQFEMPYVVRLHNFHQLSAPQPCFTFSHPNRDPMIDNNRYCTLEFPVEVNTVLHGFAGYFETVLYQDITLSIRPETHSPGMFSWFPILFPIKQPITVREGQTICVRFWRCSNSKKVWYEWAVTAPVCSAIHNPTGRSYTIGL
Protein arginine N-methyltransferase 1, sequence (Q99873 whole entry): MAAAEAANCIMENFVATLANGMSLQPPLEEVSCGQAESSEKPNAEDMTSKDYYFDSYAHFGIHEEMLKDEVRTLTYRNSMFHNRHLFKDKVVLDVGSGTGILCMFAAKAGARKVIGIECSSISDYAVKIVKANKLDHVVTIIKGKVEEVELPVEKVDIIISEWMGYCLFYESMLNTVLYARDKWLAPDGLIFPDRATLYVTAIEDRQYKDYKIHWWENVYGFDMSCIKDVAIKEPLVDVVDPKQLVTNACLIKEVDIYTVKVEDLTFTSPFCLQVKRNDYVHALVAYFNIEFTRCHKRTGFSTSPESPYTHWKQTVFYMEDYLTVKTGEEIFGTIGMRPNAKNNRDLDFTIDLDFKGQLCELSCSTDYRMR

In the case of COc1ccc2c(ccn2C[C@H](O)CN2CCc3ccccc3C2)c1, the IC50 [1] is reported as 0.31 µM, the IC50 [2] is reported as > 20 µM and the IC50 [3] is reported as > 20 µM. For the same molecule, the Activity (A549 [4]) was “Active”, the IC50 (A549 [5]) was 19.1 µM and the IC50 (MCF7) was 23.6 µM. The IC50 (MDA-MB-231) was 20.5 µM, the IC50 (HepG2) was 27.7 µM and the IC50 at 24 h [6] was > 100 µM. The Activity (A549 [7]) was “Dose-Dependent Effect”, the Activity (A549 [8]) was “Dose-Dependent Effect” and the Activity (A549 [9]) was 68%. The Activity (A549 [10]) was “Active”, the Activity (A549 [11]) was “Active” and the Activity (A549 [12]) was “Active”. The Activity (A549 [13]) was “inactive”, the half-life [14] was 2.21 h and the half-life [15] was 0.342 h. For the same molecule, the Tmax [16] was 2.7 h, the Cmax [17] was 160 ng/mL and the Cmax [18] was 182 ng/mL. For the same molecule, the half-life [19] was 6.7 h, the half-life [20] was 4.1 h and the AUC(0-t) at 24 h [21] was 1970 ng·h/mL. It also gave an AUC(0-t) at 24 h [22] of 1250 ng·h/mL, an AUC(0-inf) [23] of 2180 ng·h/mL and an AUC(0-inf) [24] of 1280 ng·h/mL. For the same molecule, the clearance [25] was 26.7 mL/min/kg, the Vd [26] was 9.3 L/kg and the bioavailability [27] was 31.4%. For the same molecule, the F [28] was 100%.
